Consider 29 molecules from ChEMBL document CHEMBL5550093, “Design, synthesis and antitumor activity of 2-substituted quinazoline-4-amine derivatives” (Bioorg Med Chem, 2024).

Data set [1] has as its system HeLa. In words: Antiproliferative activity against human HeLa cells at 5 uM incubated for 48 hrs by MTT assay relative to control. In kind it is functional. For orientation: Tetrazolium dyes change colour on reduction, which living cells bring about.
Data set [2] deals with A549. In words: Antiproliferative activity against human A549 cells at 5 uM incubated for 48 hrs by MTT assay relative to control. In kind it is functional.
The nature of data set [3]: Antiproliferative activity against HEK293T cells at 5 uM incubated for 48 hrs by MTT assay relative to control. In kind it is toxicity, cell-based, HEK-293T. As to conditions: human.
Data set [4] concerns K562. In words: Antiproliferative activity against human K562 cells at 5 uM incubated for 48 hrs by MTT assay relative to control. In kind it is functional.
For data set [5], the system named is PC-3. In words: Antiproliferative activity against human PC-3 cells at 5 uM incubated for 48 hrs by MTT assay relative to control. In kind it is functional.
Data set [6] has as its system A549. Briefly: Antiproliferative activity against human A549 cells incubated for 48 hrs by MTT assay. The note with it: A549, 48 h. In kind it is functional, cell-based.
Data set [7] can be described thus: Antiproliferative activity against HEK293T cells incubated for 48 hrs by MTT assay. In kind it is toxicity, cell-based, HEK-293T. The note with it: human.
For data set [8], the system named is K562. In words: Antiproliferative activity against human K562 cells incubated for 48 hrs by MTT assay. In kind it is functional, cell-based. As to conditions: K562, 48 h.
In data set [9] the test system is PC-3. Briefly: Antiproliferative activity against human PC-3 overexpressing WRN cells incubated for 48 hrs by MTT assay. In kind it is functional.
In data set [10] the test system is HeLa. Briefly: Antiproliferative activity against human HeLa cells incubated for 48 hrs by MTT assay. In kind it is functional, cell-based.
In data set [11] the test system is PC-3. In words: Antiproliferative activity against human PC-3 cells incubated for 48 hrs by MTT assay. In kind it is functional, cell-based. As to conditions: for IC50: PC-3, 48 h.

As for `COc1ccc(Nc2nc([C@@H](N)C(C)C)nc3ccccc23)cc1`, the inhibition (usually the relative decrease from the control value, in per cent) at 5 µM in data set [1] was 9.3%; in [2], 3.4%; in [4], 0.8%; in data set [5] it was -4.8%. In addition, in data set [3], the inhibition at 48 h, 5 µM was determined as 8.4%.
The corresponding values for `O=C(c1ccccc1)c1nc(Nc2ccc(OC(F)(F)F)cc2)c2cc(F)ccc2n1` are 27.8%, 42.2%, 19.3%, 47.6% and 23%.
The corresponding values for `COC(=O)c1ccc(Nc2nc(C(=O)c3ccc(F)cc3)nc3ccccc23)cc1` are 37.8%, 35.7%, 6.8%, 19% and 18.9%.
The corresponding values for `CCOC(=O)c1c(C)nc(-c2ccc(N(C)c3nc(C(=O)c4ccccc4)nc4ccc(F)cc34)cc2)n1C` are 4%, 1.8%, 30.1%, 1% and 0.3%.
With `CC(C)[C@H](N)c1nc(Nc2ccc(OC(F)(F)F)cc2)c2ccccc2n1`, the inhibition at 5 µM came to 2.6% in data set [1], 11.4% in data set [2], 7.2% in data set [4] and 13.3% in [5]. The inhibition at 48 h, 5 µM in data set [3] turned out to be 4.4%.
The corresponding values for `COc1ccc(N(C)c2nc(C(=O)c3ccccc3)nc3ccc(F)cc23)cc1` are 37.8%, 25%, 24.1%, 40.9% and 39.3%.
As for `CCOC(=O)c1[nH]c(-c2ccc(Nc3nc(C(=O)c4ccccc4)nc4ccc(F)cc34)cc2)nc1C`, the IC50 (commonly the concentration that inhibits the measured activity by half) was above 10 µM in [6], 8 µM in [8], above 10 µM in data set [10] and 5.7 µM in data set [11]. Besides, the inhibition at 5 µM in [1] amounted to 34.9%; in [2] it was 40.6%; in data set [4] it was 55.4%; in data set [5], 44.5%. This molecule also showed an IC50 at 48 h in data set [7] of 6.2 µM. Besides, the IC20 (as a rule, the concentration at which the effect reaches the 20% level) in data set [9] was 6.6 µM; in data set [11] (PC-3, time 48 hrs), 7.51 µM. The inhibition at 48 h, 5 µM in data set [3] is 58.3%.
Regarding `COC(=O)c1ccc(Nc2nc(C(=O)c3cccc(OC)c3)nc3ccccc23)cc1OC`, the inhibition at 5 µM in data set [1] came out at 37.7%; in [2], 40.1%; in data set [4], 9.5%; in data set [5], 48.3%. In addition, the inhibition at 48 h, 5 µM in data set [3] came out at 14.5%.
The corresponding values for `COC(=O)c1ccc(Nc2nc(C(=O)c3ccccc3)nc3ccc(F)cc23)cc1` are 0.8%, 17.7%, 19.5%, 29.3% and 11.1%.
With `C=CC(=O)Nc1cccc(Nc2nc(C(=O)c3ccccc3)nc3ccc(F)cc23)c1`, the inhibition at 5 µM is 7% in data set [1], 7.9% in data set [2], 8.9% in data set [4] and 9.6% in data set [5]. The inhibition at 48 h, 5 µM in data set [3] stood at 4.8%.
Regarding `CC(C)(CN1C(=O)C(Cl)=C(Cl)C1=O)CN1C(=O)C(Cl)=C(Cl)C1=O`, the IC50 in data set [6] stood at 3.4 µM; in data set [8] it was 1.8 µM; in data set [10] it was 2.7 µM; in [11] it was 6.8 µM. Further, the inhibition at 5 µM in [1] is 69.1%; in data set [2], 7.3%; in [4], 35%; in data set [5], 51.1%. For the same molecule, the midpoint of inhibition in [7], the IC50 at 48 h, lay at 3.1 µM. For the same molecule, in [3], the inhibition at 48 h, 5 µM worked out at 71%.
Turning to `COC(=O)c1ccc(N(C)c2nc(C(=O)c3ccccc3)nc3ccc(F)cc23)cc1`, the inhibition at 5 µM in data set [1] is 16%; in data set [2] it was 46.1%; in [4], 25.9%; in data set [5] it was 39%. In data set [3], the inhibition at 48 h, 5 µM amounted to 37.6%.
The corresponding values for `COc1cccc(C(=O)c2nc(N(C)c3ccc(OC)c(OC)c3)c3ccccc3n2)c1` are 47.1%, 45.4%, 38.8%, 25.3% and 46.3%.
The corresponding values for `CN(c1ccc(N2CCOCC2)cc1)c1nc(C(=O)c2ccccc2)nc2ccc(F)cc12` are 40.3%, 3.3%, 35.4%, 35.4% and 34.5%.
As to `COc1cccc(C(=O)c2nc(Nc3ccc(OC)c(OC)c3)c3ccccc3n2)c1`, the inhibition at 5 µM in data set [1] was 41.1%; in data set [2] it was 47.4%; in [4], 8.7%; in data set [5] it was -10.2%. In data set [3], the inhibition at 48 h, 5 µM is 5.5%.
The corresponding values for `Cc1ccc(Nc2nc(C(=O)c3ccc(F)cc3)nc3ccccc23)c(C(=O)O)c1` are 42.7%, 29.9%, 6.5%, -4.2% and 20.6%.
With `COc1cc(N2CCNCC2)ccc1N(C)c1nc(C(=O)c2ccc(F)cc2)nc2ccccc12`, the inhibition at 5 µM in [1] came out at 5.2%; in data set [2], 11.9%; in data set [4], 3.3%; in data set [5], 17.3%. Besides, in data set [3], the inhibition at 48 h, 5 µM came out at 3.2%.
In the case of `CC(C)[C@H](N)c1nc(N(C)c2ccc(OC(F)(F)F)cc2)c2ccccc2n1`, the inhibition at 5 µM in data set [1] was determined as 11.3%; in data set [2] it was 56.2%; in data set [4] it was 81.4%; in [5] it was 7%. The inhibition at 48 h, 5 µM in [3] turned out to be 25.5%.
The corresponding values for `COC(=O)c1ccc(Nc2nc(C(=O)c3ccc(F)cc3)nc3ccccc23)cc1OC` are 8.2%, 8.5%, 8.5%, -5.7% and 4.6%.
With `COc1cccc2c1C(=O)c1c(O)c3c(c(O)c1C2=O)C[C@@](O)(C(=O)CO)C[C@@H]3O[C@H]1C[C@H](N)[C@H](O)[C@H](C)O1` [DOXORUBICIN], the figures for the IC50 in data set [6] and in data set [8] were 4.4 µM and 2.3 µM, respectively. In addition, the inhibition at 5 µM in data set [1] was found to be 71.7%; in [2], 30.1%; in [4], 61%; in [5] it was 80.1%. This molecule also had an IC50 at 48 h in data set [7] of 2.4 µM. Further, in data set [3], the inhibition at 48 h, 5 µM was 81.1%.
`COC(=O)c1ccc(N(C)c2nc(C(=O)c3ccc(F)cc3)nc3ccccc23)cc1OC`: the inhibition at 5 µM amounted to 31.2% in data set [1], 21.9% in data set [2], 40.2% in data set [4] and 43.6% in data set [5]. For the same molecule, the inhibition at 48 h, 5 µM in [3] came out at 38%.
On to `COc1ccc(Nc2nc(C(=O)c3ccccc3)nc3ccc(F)cc23)cc1`, for which the inhibition at 5 µM came to 2% in data set [1], 2.9% in [2], 0.5% in data set [4] and 3.4% in data set [5]. Besides, the inhibition at 48 h, 5 µM in [3] was found to be 2.4%.
The corresponding values for `O=C(c1ccccc1)c1nc(Nc2ccc(N3CCOCC3)cc2)c2cc(F)ccc2n1` are 31.1%, 39.3%, 28.1%, 3.1% and 29.7%.
On to `CC(C)[C@H](N)c1nc(Nc2ccc(N3CCOCC3)cc2)c2ccccc2n1`, for which the inhibition at 5 µM in data set [1] was 6.5%; in [2], -0.7%; in [4], 8.2%; in data set [5], 2.1%. Moreover, the inhibition at 48 h, 5 µM in data set [3] turned out to be 1.2%.
For `CN(c1ccc(OC(F)(F)F)cc1)c1nc(C(=O)c2ccccc2)nc2ccc(F)cc12`, the inhibition at 5 µM in data set [1] was -3.1%; in data set [2], 18.4%; in data set [4], -2.2%; in [5], 10.4%. For the same molecule, in data set [3], the inhibition at 48 h, 5 µM came out at 1.3%.
The corresponding values for `COc1cc(N2CCNCC2)ccc1Nc1nc(C(=O)c2ccc(F)cc2)nc2ccccc12` are 1.7%, -0.5%, -6.6%, 9% and 5.8%.
The corresponding values for `O=C(c1ccc(F)cc1)c1nc(Nc2ccc(N3CCNCC3)c(F)c2)c2ccccc2n1` are 11.3%, 4.1%, -10.7%, -9.6% and 9.5%.
The corresponding values for `COc1cc(N(C)c2nc(C(=O)c3ccc(F)cc3)nc3ccccc23)ccc1C(=O)O` are 12.3%, 5.1%, 6.4%, -8.9% and 5.3%.
In the case of `COc1ccc(Nc2nc(C(=O)c3cccc(OC)c3)nc3ccccc23)cc1`, the inhibition at 5 µM in [1] was 40.1%; in [2] it was 44.3%; in [4], 25.2%; in [5], 46.5%. Also, the inhibition at 48 h, 5 µM in [3] stood at 4.7%.
